Entries after “also recorded” stand apart in the source; their conditions may differ.
Key:
[1] = test system: systemic immune responses; experiment: Models of systemic immunosuppression (graft-versus-host reaction, antibody formation to sheep red blood cells, kidney transplantation); assay type: in vivo, rats; conditions: transplantation and vaccination models
Description: Pimecrolimus (also called ASM981 and ELIDEL®) is an ascomycin macrolactam-derivative with anti-inflammatory properties, chemical name is 33-epichloro-33-desoxy-ascomycin. Pimecrolimus is an ascomycin macrolactam-derivative developed originally for topical and oral treatment of inflammatory skin diseases such as atopic dermatitis and psoriasis. Pimecrolimus binds to macrophilin-12 and inhibits the Ca-dependent phosphatase calcineurin. As a consequence, it inhibits T cell activation and blocks the transcription and release of both Th1 and Th2 inflammatory cytokines. […] Tachyphylaxis has not been observed.

[2] = test system: SCID mice reconstituted with CD4^+CD45RB^HI T cells; experiment: SCID-IBD mouse model, treatment from day 1 for 4 weeks; assay type: in vivo; conditions: for loss of original BW: 4 weeks post-T cell transfer (controls lost 15-18%); for colitis, histological inflammation of colon (score 0-8): 29 days
Description: A well-established animal model for IBD exists (see Leach et al., Am. J. Pathol., Vol. 148, No. 5, pp. 1503-1515 (1996), and Powrie et al., Int. Immunol., Vol. 5, No. 11, pp. 1461-1471 (1993)). It is known that the transfer of syngeneic, naive T lymphocytes (CD4^+CD45RB^HI) into SCID mice results in a severe colitis and wasting disease, SCID-IBD. Histopathologically, features of both CD and UC are represented in this model which has been used throughout the 1990s to bring the understanding of the pathoetiology of this disease of immune dysregulation in man to its present status. There is no other animal model of IBD which is considered relevant for the human disease, both in mechanism and in validity of clinical treatment.
In this study, SCID mice reconstituted with CD4^+CD45RB^HI T lymphocytes were used. These mice are known to develop chronic colitis with characteristics similar to human IBD, as described above.
In this study, SCID mice were reconstituted with 2 x 10^5 CD4^+CD45RB^HI T cells and then treated with pimecrolimus (30, 60 and 100 mg/kg/day) or vehicle daily p.o. for 4 weeks. […] BW was monitored throughout. On termination, blood was withdrawn, spleen, mesenteric lymph nodes (MLN) and colon were removed. Serum haptoglobin levels were measured (ELISA), colitis was assessed histologically and lymphocyte and neutrophil numbers were calculated from FACS analysis of blood, spleen and MLN cell suspensions.
In order to determine the efficacy of ASM981 treatment in preventing intestinal mucosal damage in SCID-IBD mice, a histological examination of the colon sections was performed according to defined morphological parameters. All colon sections were assessed according to a scheme awarding degrees of severity governed by the extent of cell infiltration and inflammation with a score of 8 being the maximum.

[3] = test system: SCID mice reconstituted with CD4^+CD45RB^HI T cells; experiment: SCID-IBD mouse model, delayed treatment of established IBD; assay type: in vivo; conditions: 100 mg/kg/day p.o. started after 7, 14 or 21 days, until 41 days
Method: In order to determine if pimecrolimus is also effective once IBD is established, SCID mice were treated with pimecrolimus at a dose level of 100 mg/kg/day at days 7, 14 or 21 following the transfer of the disease causing CD4^+ T cells. The study was terminated after 41 days, i.e., the mice were treated for 33, 26 and 19 days, respectively.
SCID mice were reconstituted with 2 x 10^5 CD4^+CD45RB^HI T cells and treatment with pimecrolimus (100 mg/kg/day p.o.) started after 7, 14 or 21 days and continued daily until 41 days. Treatment with the placebo formulation started after 7 days. BW was monitored once a week for the first 2 weeks and then twice weekly. Data are expressed as mean percent BW relative to the weight on day 0 ± s.e.m. for n = 9 (PBS), n = 8 (ASM(7d) & ASM(21d) and n = 7 (ASM(14d) and placebo) mice per group. PBS refers to the non-transferred mice which have been pooled with regard to percent BW values since no treatment dependent changes were found. p<0.01 relative to the placebo-treated group at 41 days.
SCID mice were reconstituted with 2 x 10^5 CD4^+CD45RB^HI T cells and treatment with pimecrolimus (100 mg/kg/day p.o.) started after 7, 14 or 21 days and continued daily until 41 days. Treatment with the placebo formulation started after 7 days. On day 41, mice were killed and serum kept for haptoglobin assay. Data are expressed as mean haptoglobin (mg/mL) ± s.e.m. for n = 9 (PBS), n = 8 (ASM(7d)) and n = 7 (ASM(14d), ASM(21d) and placebo) mice per group. […]
SCID mice were reconstituted with 2 x 10^5 CD4^+CD45RB^HI T cells and treatment with pimecrolimus (100 mg/kg/day p.o.) started after7, 14 or 21 days and continued daily until 41 days. […] Data are expressed as the mean neutrophil numbers, calculated from the percent positive cells and the total cell number per sample, ± s.e.m. for n mice (n in each bar) per group. p<0.05 calculated relative to the placebo-treated group.

[4] = test system: pulmonary eosinophilia; experiment: Antigen-induced pulmonary eosinophilia in actively sensitized rats; assay type: in vivo, Brown Norway Rats; conditions: given orally as a microemulsion or dissolved in Neoral placebo
Description: Another study looked at the effects of oral administration of pimecrolimus on antigen-induced pulmonary eosinophilia in actively sensitized Brown Norway Rats.

[5] = dose range 30-100 mg/kg/day p.o.

## CC[C@@H]1/C=C(\C)C[C@H](C)C[C@H](OC)[C@H]2O[C@@](O)(C(=O)C(=O)N3CCCC[C@H]3C(=O)O[C@H](/C(C)=C/[C@@H]3CC[C@H](Cl)[C@H](OC)C3)[C@H](C)[C@@H](O)CC1=O)[C@H](C)C[C@@H]2OC [pimecrolimus, 33-epichloro-33-desoxy-ascomycin]
[1]
  systemic immunosuppressive effect compared to CyA and FK506: only a low potential to impair systemic immune responses; also recorded: minimal immunosuppressive effects
[2]; 30 mg/kg/day p.o.
  loss of original BW: 7.1%
  colitis, histological inflammation of colon (score 0-8): moderate to severe
[2]; 60 mg/kg/day p.o.
  block of neutrophil infiltration into the colon (MPO activity): 72%
  loss of original BW: 8.8%
  colitis, histological inflammation of colon (score 0-8): moderate
[2]; 100 mg/kg/day p.o.
  mice with macroscopically normal feces (diarrhea): Approximately half of the mice
  neutrophil infiltration into the colon (MPO activity): completely blocked
  loss of original BW: 3.2%
  colitis, histological inflammation of colon (score 0-8): only mildly inflamed colons
[2]; [5]
  reduction of Haptoglobin production (serum): 68-92%
  reduction of blood neutrophilia: 85-96%
  reduction of spleen neutrophilia: 74-83%
[2]; up to 100 mg/kg/day p.o.
  lymphocyte numbers in MLN: significant reduction
  lymphocyte numbers in blood or spleen: did not significantly affect
[3]
  acute phase response (serum haptoglobin) in established IBD: inhibits the ongoing acute phase response
  blood and spleen neutrophilia in established/ongoing colitis: strongly inhibits
  loss of BW in established/ongoing colitis: highly-effective in reversing the loss of BW
[4]
  antigen-induced pulmonary eosinophilia: effective
